SMILES strings stand for the structures.

T1 sequence (P45983 whole entry): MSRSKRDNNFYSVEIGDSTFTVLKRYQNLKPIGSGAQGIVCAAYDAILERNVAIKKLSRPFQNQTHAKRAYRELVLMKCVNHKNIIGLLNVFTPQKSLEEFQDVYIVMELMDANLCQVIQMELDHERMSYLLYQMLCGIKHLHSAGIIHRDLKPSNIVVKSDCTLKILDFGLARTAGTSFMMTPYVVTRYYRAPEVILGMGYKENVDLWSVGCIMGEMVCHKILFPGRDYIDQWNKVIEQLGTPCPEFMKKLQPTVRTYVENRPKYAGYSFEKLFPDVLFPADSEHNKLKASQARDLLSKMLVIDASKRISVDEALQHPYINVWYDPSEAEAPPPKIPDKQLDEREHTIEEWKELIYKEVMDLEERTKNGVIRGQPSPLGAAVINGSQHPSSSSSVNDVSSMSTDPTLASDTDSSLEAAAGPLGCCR

This experiment has as its target T1, JNK1 (Homo sapiens, UniProt P45983).
T1 construct: purchased Carna Biosciences
The experiment is described as follows: JNK1 biochemical assays (one or more of: time resolved fluorescence, Z'-LYTE Cascade, radioactive). Particulars: Table 2; JNK1 IC50 activity level; read-out: Act. Level.
On to `Cc1ccccc1Nc1ncc(C(N)=O)c(Nc2ccccc2)n1` [Example B-30, 4-(phenylamino)-2-(o-tolylamino)pyrimidine-5-carboxamide], for which the IC50 is less than 200 nM.
For the compound `NC(=O)c1cnc(NC2CCc3ccccc32)nc1Nc1ccccc1` (stereo not drawn) [Example B-31, 2-(2,3-dihydro-1H-inden-1-ylamino)-4-(phenylamino)pyrimidine-5-carboxamide], the IC50 was in the range of 200 to 800 nM.
On to `COc1ccc(NC(C)=O)cc1Nc1ncc(C(N)=O)c(Nc2ccccc2)n1` [Example B-32, 2-(5-acetamido-2-methoxyphenylamino)-4-(phenylamino)pyrimidine-5-carboxamide], for which the IC50 was in the range of 200 to 800 nM.
Then `Cc1cc(Nc2ncc(C(N)=O)c(Nc3ccccc3)n2)n[nH]1` [Example B-33, 2-(5-methyl-1H-pyrazol-3-ylamino)-4-(phenylamino)pyrimidine-5-carboxamide], with 200 to 800 nM; and `COc1ccc(C)c(Nc2ncc(C(N)=O)c(Nc3ccccc3)n2)c1` [Example B-34, 2-(5-methoxy-2-methylphenylamino)-4-(phenylamino)pyrimidine-5-carboxamide], with less than 200 nM; and `NC(=O)c1cnc(NCC2CC2)nc1Nc1ccccc1` [Example B-35, 2-(cyclopropylmethylamino)-4-(phenylamino)pyrimidine-5-carboxamide], with 200 to 800 nM.
Then `NC(=O)c1cnc(NC2CC2)nc1Nc1ccccc1` [Example B-36, 2-(cyclopropylamino)-4-(phenylamino)pyrimidine-5-carboxamide], with less than 200 nM; and `NC(=O)c1cnc(N2CCC(C(N)=O)CC2)nc1Nc1ccccc1` [Example B-37, 2-(4-carbamoylpiperidin-1-yl)-4-(phenylamino)pyrimidine-5-carboxamide], with 1000 to 10000 nM; and `COc1ccc(CCNc2ncc(C(N)=O)c(Nc3ccccc3)n2)cc1` [Example B-38, 2-(4-methoxyphenethylamino)-4-(phenylamino)pyrimidine-5-carboxamide], with 200 to 800 nM.
Then `NC(=O)c1cnc(NCc2cccc(F)c2)nc1Nc1ccccc1` [Example B-39, 2-(3-fluorobenzylamino)-4-(phenylamino)pyrimidine-5-carboxamide], with 200 to 800 nM; and `NC(=O)c1cnc(Nc2ccc(N3CCOCC3)cc2)nc1Nc1ccccc1` [Example B-40, 2-(4-morpholinophenylamino)-4-(phenylamino)pyrimidine-5-carboxamide], with less than 200 nM; and `CC(=O)NCCNc1ncc(C(N)=O)c(Nc2ccccc2)n1` [Example B-41, 2-(2-acetamidoethylamino)-4-(phenylamino)pyrimidine-5-carboxamide], with 1000 to 10000 nM.
Take `NC(=O)c1cnc(NCCc2cccs2)nc1Nc1ccccc1` [Example B-42, 4-(phenylamino)-2-(2-(thiophen-2-yl)ethylamino)pyrimidine-5-carboxamide]: the IC50 is 200 to 800 nM.
Consider `COc1ccc(CNc2ncc(C(N)=O)c(Nc3ccccc3)n2)cc1OC` [Example B-43, 2-(3,4-dimethoxybenzylamino)-4-(phenylamino)pyrimidine-5-carboxamide], for which the IC50 lay in the range of 200 to 800 nM.
`NC(=O)c1cnc(NC2CCCC2)nc1Nc1ccccc1` [Example B-44, 2-(cyclopentylamino)-4-(phenylamino)pyrimidine-5-carboxamide]: the IC50 was less than 200 nM.
Then `NC(=O)c1cnc(NC2CCCCC2)nc1Nc1ccccc1` [Example B-45, 2-(cyclohexylamino)-4-(phenylamino)pyrimidine-5-carboxamide], with less than 200 nM.
In the case of `CCC(C)Nc1ncc(C(N)=O)c(Nc2ccccc2)n1` (stereo not drawn) [Example B-46, 2-(sec-butylamino)-4-(phenylamino)pyrimidine-5-carboxamide], the IC50 is less than 200 nM.
Take `CC1CCC(Nc2ncc(C(N)=O)c(Nc3ccccc3)n2)CC1` (stereo not drawn) [Example B-47, 2-(4-methylcyclohexylamino)-4-(phenylamino)pyrimidine-5-carboxamide]: the IC50 was less than 200 nM.
Regarding `CCOC(=O)N1CCC(Nc2ncc(C(N)=O)c(Nc3ccccc3)n2)CC1` [Example B-48, ethyl 4-(5-carbamoyl-4-(phenylamino)pyrimidin-2-ylamino)piperidine-1-carboxylate], the IC50 was less than 200 nM.
Then `NC(=O)c1cnc(NCC2CCCCC2)nc1Nc1ccccc1` [Example B-49, 2-(cyclohexylmethylamino)-4-(phenylamino)pyrimidine-5-carboxamide], with 200 to 800 nM; and `NC(=O)c1cnc(NC2CCN(Cc3ccccc3)CC2)nc1Nc1ccccc1` [Example B-50, 2-(1-benzylpiperidin-4-ylamino)-4-(phenylamino)pyrimidine-5-carboxamide], with 200 to 800 nM; and `NC(=O)c1cnc(NCc2cccnc2)nc1Nc1ccccc1` [Example B-51, 4-(phenylamino)-2-(pyridin-3-ylmethylamino)pyrimidine-5-carboxamide], with 200 to 800 nM.
As for `NC(=O)c1cnc(NCc2cc(F)cc(F)c2)nc1Nc1ccccc1` [Example B-52, 2-(3,5-difluorobenzylamino)-4-(phenylamino)pyrimidine-5-carboxamide], the IC50 fell in the range of 800 to 1000 nM.
Then `CC(Nc1ncc(C(N)=O)c(Nc2ccccc2)n1)c1ccccc1` (stereo not drawn) [Example B-53, 4-(phenylamino)-2-(1-phenylethylamino)pyrimidine-5-carboxamide], with 200 to 800 nM; and `CCOc1ccccc1CNc1ncc(C(N)=O)c(Nc2ccccc2)n1` [Example B-54, 2-(2-ethoxybenzylamino)-4-(phenylamino)pyrimidine-5-carboxamide], with 800 to 1000 nM; and `COc1cccc(CNc2ncc(C(N)=O)c(Nc3ccccc3)n2)c1OC` [Example B-55, 2-(2,3-dimethoxybenzylamino)-4-(phenylamino)pyrimidine-5-carboxamide], with 200 to 800 nM.
Turning to `CCC(Nc1ncc(C(N)=O)c(Nc2ccccc2)n1)c1ccccc1` (stereo not drawn) [Example B-56, 4-(phenylamino)-2-(1-phenylpropylamino)pyrimidine-5-carboxamide], the IC50 lay within 200 to 800 nM.
Then `NC(=O)c1cnc(NCc2ccc(F)cc2F)nc1Nc1ccccc1` [Example B-57, 2-(2,4-difluorobenzylamino)-4-(phenylamino)pyrimidine-5-carboxamide], with 200 to 800 nM; and `CC1(C)OCC(CNc2ncc(C(N)=O)c(Nc3ccccc3)n2)O1` (stereo not drawn) [Example B-58, 2-((2,2-dimethyl-1,3-dioxolan-4-yl)methylamino)-4-(phenylamino)pyrimidine-5-carboxamide], with 200 to 800 nM; and `CCC(C)CNc1ncc(C(N)=O)c(Nc2ccccc2)n1` (stereo not drawn) [Example B-59, 2-(2-methylbutylamino)-4-(phenylamino)pyrimidine-5-carboxamide], with less than 200 nM.
`COc1ccccc1CNc1ncc(C(N)=O)c(Nc2ccccc2)n1` [Example B-60, 2-(2-methoxybenzylamino)-4-(phenylamino)pyrimidine-5-carboxamide]: the IC50 was 200 to 800 nM.
Then `CN(C)CCNc1ncc(C(N)=O)c(Nc2ccccc2)n1` [Example B-61, 2-(2-(dimethylamino)ethylamino)-4-(phenylamino)pyrimidine-5-carboxamide], with 1000 to 10000 nM; and `CN1CCCC1CCNc1ncc(C(N)=O)c(Nc2ccccc2)n1` (stereo not drawn) [Example B-62, 2-(2-(1-methylpyrrolidin-2-yl)ethylamino)-4-(phenylamino)pyrimidine-5-carboxamide], with 1000 to 10000 nM.
As to `NC(=O)c1cnc(NCCc2ccccn2)nc1Nc1ccccc1` [Example B-63, 4-(phenylamino)-2-(2-(pyridin-2-yl)ethylamino)pyrimidine-5-carboxamide], the IC50 lay within 200 to 800 nM.
In the case of `NC(=O)c1cnc(NCC2CCCO2)nc1Nc1ccccc1` (stereo not drawn) [Example B-64, 4-(phenylamino)-2-((tetrahydrofuran-2-yl)methylamino)pyrimidine-5-carboxamide], the IC50 fell in the range of 200 to 800 nM.
Turning to `NC(=O)c1cnc(NCc2ccco2)nc1Nc1ccccc1` [Example B-65, 2-(furan-2-ylmethylamino)-4-(phenylamino)pyrimidine-5-carboxamide], the IC50 fell in the range of 1000 to 10000 nM.
Then `COc1ccc(CCNc2ncc(C(N)=O)c(Nc3ccccc3)n2)cc1OC` [Example B-66, 2-(3,4-dimethoxyphenethylamino)-4-(phenylamino)pyrimidine-5-carboxamide], with 200 to 800 nM; and `NC(=O)c1cnc(NCc2ccc(F)cc2)nc1Nc1ccccc1` [Example B-67, 2-(4-fluorobenzylamino)-4-(phenylamino)pyrimidine-5-carboxamide], with 200 to 800 nM; and `CCCNc1ncc(C(N)=O)c(Nc2ccccc2)n1` [Example B-68, 4-(phenylamino)-2-(propylamino)pyrimidine-5-carboxamide], with 200 to 800 nM.
Then `COCCNc1ncc(C(N)=O)c(Nc2ccccc2)n1` [Example B-69, 2-(2-methoxyethylamino)-4-(phenylamino)pyrimidine-5-carboxamide], with 800 to 1000 nM.
With `NC(=O)c1cnc(NCc2ccc(F)c(F)c2)nc1Nc1ccccc1` [Example B-70, 2-(3,4-difluorobenzylamino)-4-(phenylamino)pyrimidine-5-carboxamide], the IC50 was in the range of 200 to 800 nM.
Then `NC(=O)c1cnc(NCCc2ccccc2)nc1Nc1ccccc1` [Example B-71, 2-(phenethylamino)-4-(phenylamino)pyrimidine-5-carboxamide], with 200 to 800 nM; and `CC(CNc1ncc(C(N)=O)c(Nc2ccccc2)n1)c1ccccc1` (stereo not drawn) [Example B-72, 4-(phenylamino)-2-(2-phenylpropylamino)pyrimidine-5-carboxamide], with 200 to 800 nM; and `NC(=O)c1cnc(NCc2ccccc2)nc1Nc1ccccc1` [Example B-73, 2-(benzylamino)-4-(phenylamino)pyrimidine-5-carboxamide], with 800 to 1000 nM.
Then `NC(=O)c1cnc(N[C@@H]2CCCc3ccccc32)nc1N[C@@H]1CCC[C@H](O)C1` [Example B-74, 4-((1R,3S)-3-hydroxycyclohexylamino)-2-((R)-1,2,3,4-tetrahydronaphthalen-1-ylamino)pyrimidine-5-carboxamid], with less than 200 nM.

Values taken from US12129237B2, “Substituted diaminocarboxamide and diaminocarbonitrile pyrimidines, compositions thereof, and methods of treatment therewith” (SIGNAL PHARMACEUTICALS, LLC, priority 2011, dated 2024).
